Read-outs that look alike come from different tables or passages of the source.
Tests used:
A. ceylanicum L3 larvae = A. ceylanicum L3 larvae J. Keiser; format: cell-based, Ancylostoma ceylanicum; settings: 200µM
[1] = tested on: Mycobacterium tuberculosis mc26220 replicating; assay: microbe, parasite or virus in culture; format: cell-based
P. falciparum Dd2 = P. falciparum Dd2 asexual blood stages Scynexis; format: cell-based; settings: Plasmodium falciparum
P. berghei ookinetes [2] = tested on: P. berghei ookinetes; design: method as in ref [74] (a number printed in a supplementary file, which may have a reference list of its own: not looked up in the article's list); settings: 1µM; ref [74]; cited from earlier work
[3] = tested on: P. falciparum W2 apicoplast; settings: 5µM compound; ref [54]; cited from earlier work
Brugia malayi = Brugia malayi Scynexis; format: cell-based; settings: 10µM
Procedure: Supplement ppat.1005763.s002.xlsx, sheet "S1 Table Heat Map" | column: Brugia malayi 5d % dead at 10µM Scynexis

P. falciparum 3D7 or K1 = assay: Asexual Blood Stage Imaging Assay (DAPI) V. Avery; format: cell-based; settings: Plasmodium falciparum; 5µM; read-out: P. falciparum 3D7 asexual blood stage % inhibition (Image)
P. berghei ookinetes [4] = assay: P. berghei Ookinete Development Assay (Pb ODA); format: cell-based; settings: Plasmodium berghei
Excerpt: Columns BX- CA, CD-DF: Delves, Ruecker, & Sinden group (Data and methods published in ref [82] except Column CE which is new data) The data represent our primary screening data in the P. falciparum Dual Gamete formation assay (Pf DGFA). They show the functional viability of mature Stage V male and female gametocytes as reported by their ability to undergo gamete formation as reported in the reference. Column CD represents primary screening data in the P. berghei Ookinete Development Assay (Pb ODA) at 1 µM as reported in the reference. Column CE represents a parallel screen in the Pb ODA at 10 µM that has not been published.

[5] = tested on: Trypanosoma brucei brucei 427; assay: T. brucei brucei Scynexis; format: cell-based
Chromera velia = Chromera velia flagellation motility assay; settings: 1µM
Dictyostelium discoideum = assay: D. discoideum toxicity assay; format: cell-based; settings: 10µM
Procedure: Columns FA-FC: Soldati Group (data presented first in this paper). M. marinum, D. discoideum, and Acathamoeba castellani assays. Each compound of the Malaria Box has been assayed at 10 µM in all three assays. First, the antibiotic activity was assayed directly against Mycobacterium marinum in its culture medium. Second, the toxicity and growth inhibitory effect of the compounds was assayed against the amoeba Dictyostelium discoideum in its culture medium. Finally, the “in cellulo” anti-infective activity of each compound was tested using the intracellular infection system Acanthamoeba castellanii-M. marinum. Values have been normalized using the DMSO carrier. For each assay, values have been normalized to 1.00 using the DMSO carrier, which has no detectable effect on D. discoideum nor M. marinum growth, while rifabutin was used as positive control for the antibiotic assay and the infection assay, as it abolishes M. marinum growth (normalized value under 0.10) in broth at 10 µM and intracellularly at 30 µM [150].

wild type yeast cells = assay: WT yeast (PMT assay control); settings: Saccharomyces cerevisiae
[6] = tested on: P. falciparum NF54 gametocytes stage I-V; design: method as in ref [58, 65] (a number printed in a supplementary file, which may have a reference list of its own: not looked up in the article's list); settings: 12.5µM; ref [58, 65]; cited from earlier work
zebrafish embryos = assay: Zebrafish embryo toxicity, mortality, behaviour; format: in vivo; settings: 10µM
Procedure: Columns FE-FG: BIOBIDE group (data presented first in this paper). Zebrafish embryo toxicity, mortality, and behaviour change. 3 days post fertilization (dPf) zebrafish embryos from AB strain (wild type) were used for in vivo toxicity and behavioural screening. […] Then, embryos were incubated with each compound at 10 µM (1% DMSO) in E3 buffered with HEPES at 10 mM for 48 hours in 24 well plates, 5 embryos per well, 3 wells per condition (n=15). A group treated only with the vehicle was included in each plate as negative control. Afterwards, mortality and morphological alterations were assessed. Toxicity: When an altered phenotype (mortality, developmental abnormalities) appeared in more than 20% of cases it was considered toxic. […] For this purpose, 5dPf larvae (treated and negative controls) were transferred from 24-well treatment plate to 96-well plate, one embryo per well. 96-well plate was introduced in DanioVision system powered by Ethovision (Noldus). The behaviour was evaluated recording a total of 40 minutes in a round of 10 minutes under light and 10 minutes in darkness repeated twice. As activity is expected to differ under light and dark periods, the analysis was performed for each one of the 10 minutes phases. The differences between treated and controls for each parameter (distance, velocity) and phase was considered significant if p value is less than 0.005 (scored y for yes in HeatMap). Also, the p values between 0.01 and 0.005 were taken into account as an indicator of tendency (scored m for maybe in heat map). The toxic character of a compound was determined by the consistent differences (in both dark and light periods) between treated embryos and controls. […] If consistent results could not be obtained, the compound was scored i for indeterminate.

Trypanosoma cruzi = assay: T. cruzi Scynexis; format: cell-based
[7] = read-out: % Inhibition in WT yeast (PMT assay control), no added choline
[8] = read-out: % Inhibition in WT yeast (PMT assay control), with added choline

Row | Compound | Anyclostoma ceylanicum L3 larvae effect (%) (A. ceylanicum L3 larvae) | inhibition at 25 µM [1] [%] | inhibition at 10 µM (P. falciparum Dd2) [%] | P. berghei ookinete assay % inhibition (P. berghei ookinetes [2]) [%] | Brugia malayi 5d % dead (Brugia malayi) [%] | inhibition at 5 µM (P. falciparum 3D7 or K1) [%] | inhibition at 10 µM (P. berghei ookinetes [4]) [%] | inhibition at 5 µM [5] [%] | Chromera velia 24 hr Flagellation (control standardized to ++; 0 = no flagella) (Chromera velia) | Chromera velia 72 hr Flagellation (control standardized to ++; 0 = no flagella) (Chromera velia) | inhibition at 100 µM (wild type yeast cells; [7]) [%] | inhibition at 100 µM (wild type yeast cells; [8]) [%] | gametocyte Stage I % inhibition [6] [%] | gametocyte Stage II % inhibition [6] [%] | gametocyte Stage III % inhibition [6] [%] | gametocyte Stage IV % inhibition [6] [%] | gametocyte Stage V % inhibition [6] [%] | Zebrafish % mortality (zebrafish embryos) [%] | inhibition at 5 µM (Trypanosoma cruzi) [%] | Zebrafish Toxicity (mortality and dev abnl) (zebrafish embryos) | further results
1 | CCN(CC)c1cc(C)c2cc(NC(=O)c3cccc(OC)c3)ccc2n1 [MMV000498] | 0 | 19 | 8 | -7.5 | 13 | 97 | -0.6 | 74 | ++ | +++ | 0 | 0 | 84 | 43 | 12 | 1.56 | -1.9 | 0 | 98 |  | P. falciparum (W2) asexual growth: ratio w & wout 200µM IPP [3]: 1.10; Dictyostelium discoideum relative growth DMSO=1 Toxicity Assay (Dictyostelium discoideum): 0.60
2 | COc1cc2cc(C(=O)Nc3ccccc3)c(N)nc2cc1OC [MMV006767] | 0 | 17 | 40 | 8.6 | 18 | 99 | 39.4 | -54 | +++ | ++ | 0 | 0 | 96 | 56 | 26 | 12 | 23 | 0 | 86 | y (altered phenotype (mortality, developmental abnormalities) appeared in more than 20% of cases it was considered toxic) | 
3 | CCN1CCN(c2cc(C)c3cc(NC(=O)c4ccc(OC)c(OC)c4)ccc3n2)CC1 [MMV019074] | 0 | 15 | 80 | -2.9 | -2 | 99 | 43 | 45 | +++ | +++ | 0 | 0 | 66 | 32 | -6 | 16 | 9 | 0 | 13 | y (altered phenotype (mortality, developmental abnormalities) appeared in more than 20% of cases it was considered toxic) | 
4 | COc1ccc(C(=O)Nc2ccc3nc(N4CCCCC4)cc(C)c3c2)cc1OC [MMV019758] | 0 | 21 | 36 | -18.9 | 9 | 76 | 35.4 | -11 | + | ++ | 0 | 0 | 72 | 41 | 3.44 | 8 | 0.3 | 13 | 71 | y (altered phenotype (mortality, developmental abnormalities) appeared in more than 20% of cases it was considered toxic) | P. falciparum (W2) asexual growth: ratio w & wout 200µM IPP [3]: 0.79; Dictyostelium discoideum relative growth DMSO=1 Toxicity Assay (Dictyostelium discoideum): 0.88
5 | CCOC(=O)c1cnc2ccc(OC)cc2c1NCc1ccccc1 [MMV665813] | 0 | 40 | 55 | -6.8 | 12 | 97 | 33.4 | -25 | +++ | ++ | 0 | 0 | 68 | 46 | -0.559 | 15 | 12 | 100 | -49 | y (altered phenotype (mortality, developmental abnormalities) appeared in more than 20% of cases it was considered toxic) | P. falciparum (W2) asexual growth: ratio w & wout 200µM IPP [3]: 0.72; Dictyostelium discoideum relative growth DMSO=1 Toxicity Assay (Dictyostelium discoideum): 0.71

Reference: PMC4965013, “Open Source Drug Discovery with the Malaria Box Compound Collection for Neglected Diseases and Beyond” (PLoS Pathogens, 2016)
